Laboratory results reported in patent publication US20180085386A1, “URIDINE MONOPHOSPHATE AND TRIPHOSPHATE DERIVATIVES, COMPOSITIONS AND METHODS OF USE” (Tufts University, priority 2016, published 2018).

Key:
[1] = Cmax after effective dose of compound 5; conditions: mouse, in vivo, 10 ug/kg; effective dose of 10 μg/kg
[2] = tested on: PSAPP mice; assay: Contextual fear conditioning test (freezing); format: in vivo, mouse; conditions: vs vehicle
Procedure: In this study, the diphosphate derivative of compound 5 was injected intraperitoneally into 6 to 7-month-old PSAPP and WT mice daily at two different doses, i.e., 1 μg/kg or 1 mg/kg of the diphosphate derivative of compound 5 (in 1% DMSO/PBS) for 7 consecutive days. Consistent with the results observed following acute UDP or PSB0474 treatment, treatment with the diphosphate derivative of compound 5 increased total freezing percentage in the context test in PSAPP mice (FIG. 4). […] FIG. 4 depicts the results of experiments using the contextual fear conditioning test with PSAPP mice treated with vehicle control (black bar at center of graph). […]
In this study, treatment of PSAPP mice commenced when the mice were pre-symptomatic. […] Following treatment, mice were assessed in a fear conditioning task for memory formation. Subsequently, plaque burden in the mice was also evaluated. […]
Treatment with compound 5 prevented impairments in contextual fear memory. […] Memory is assessed by the percent time that mice “freeze” 24 hours after a fear inducing electric shock. […]
In this study, treatment of PSAPP mice commenced when the mice were pre-symptomatic. […] Following treatment, mice were assessed for the following: concentration of circulating pro-inflammatory cytokines; amyloid beta load (e.g., plaque burden); and memory in a fear conditioning task for memory formation. […]

[3] = tested on: PSAPP mice; assay: Plaque load in cortex and hippocampus by amyloid beta immunostaining; format: in vivo, mouse; conditions: 10 μg/kg i.p. once per day for 7 days; PS1/APP mice 26 weeks; cortex; FIG. 6B
[4] = tested on: circulating cytokines in plasma of PSAPP mice; assay: Circulating cytokine levels in plasma of PSAPP mice (multiplex); format: in vivo, mouse; conditions: vs vehicle
Procedure: As part of the study described in Example 16, the levels of numerous cytokines in plasma of mice treated with vehicle or compound 5 were also evaluated. As described in Example 16, treatment was initiated when the mice were approximately 3 months old. PSAPP mice were treated for 100 days with daily injections of 10 μg/kg of compound 5 or vehicle. Following treatment and the fear conditioning task experiment, plasma was taken for multiplex cytokine analysis of circulating cytokine levels in vehicle-treated versus compound-treated PSAPP mice. Cytokine levels are assayed using a multi-plex system where beads are labelled with capture antibody specific for each analyte tested. Each bead set is coupled to a specific capture antibody and is distinguishable from beads coupled to a different capture antibody. Thus, the levels of each analyte can be evaluated and distinguished. […] In FIGS. 10-13, compound 5 is indicated along the x-axis as “compound”.
In this study, treatment of PSAPP mice commenced when the mice were pre-symptomatic. Specifically, treatment was initiated when the mice were approximately 3 months old. PSAPP mice were treated for 100 days with daily, intraperitoneal injections of 10 μg/kg of compound 5 or vehicle. Following treatment, mice were assessed for the following: concentration of circulating pro-inflammatory cytokines; amyloid beta load (e.g., plaque burden); and memory in a fear conditioning task for memory formation. The data provided in Example 18 is for 18 vehicle treated mice and 20 compound treated mice. The data provided for the vehicle-treated group is the average across those mice, and error bars depict the standard error (SEM). Similarly, the data provided for the compound-treated group is the average across those mice, and the error bars depict the SEM. Mice were first evaluated in the fear conditioning task experiment. Subsequently, plasma was taken for multiplex cytokine analysis of circulating levels of cytokine in the plasma. Finally, plaque burden was assessed in the cortex and hippocampus of the mice.
In this study, treatment of PSAPP mice commenced after the mice were already symptomatic. Specifically, treatment was initiated when the mice were approximately 6 months old. PSAPP mice were treated for 7 days with daily, intraperitoneal injections of 10 μg/kg of compound 5 or vehicle. Following treatment, mice were assessed for the following: concentration of circulating pro-inflammatory cytokines; amyloid beta load (e.g., plaque burden); and plaque size. The data provided in Example 19 is for 7 vehicle treated mice and 7 compound treated mice. The data provided for the vehicle-treated group is the average across those mice, and error bars depict the standard error (SEM). Similarly, the data provided for the compound-treated group is the average across those mice, and the error bars depict the SEM. Plasma was taken for multiplex cytokine analysis of circulating levels of cytokine in the plasma. Subsequently, plaque burden was assessed in the cortex (using Aβ40) and hippocampus (using Aβ42) of the mice, and plaque size was also assessed.

[5] = 10 μg/kg daily for 100 days, Example 18
[6] = 10 μg/kg daily for 100 days, Example 18, FIG. 10
[7] = 10 μg/kg i.p. daily for 7 days from ~6 months (symptomatic), Example 20, FIG. 16
[8] = 10 μg/kg i.p. daily for 100 days from ~3 months, Example 19, FIG. 14

In the case of `O=c1ccn([C@@H]2O[C@H](CO)C(O)C2O)c(=O)n1Cc1noc2ccccc12` (stereo in doubt) [compound 5], the Cmax [1] is reported as 13 nM, the “freezing time in contextual fear memory test” value ([2]; 10 μg/kg i.p. daily for 100 days from ~3 months of age, Example 17, FIG. 8) is reported as “statistically significant increase” and the “freezing time in contextual fear memory test” value ([2]; 10 μg/kg i.p. daily for 100 days from ~3 months, Example 19, FIG. 15(C)) is reported as “statistically significant increase”. For the same compound, the Aβ42 plaque burden [3] was “significantly reduced”, the “average plasma level of IFN-r” value [4, 5] was “reduced” and the “average plasma level of IL-1β” value [4, 5] was “reduced”. For the same compound, the “average plasma level of IL-2” value [4, 5] was “reduced”, the “average plasma level of IL-3” value [4, 5] was “reduced” and the “average plasma level of IL-5” value [4, 5] was “reduced”. The “average plasma level of IL-6” value [4, 5] was “reduced”, the “average plasma level of IL-7” value [4, 5] was “reduced” and the “average plasma level of IL-9” value [4, 5] was “reduced”. For the same compound, the “average plasma level of IL-13” value [4, 5] was “reduced”, the “average plasma level of IL-17” value [4, 5] was “reduced” and the “average plasma level of LIF” value [4, 5] was “reduced”. For the same compound, the “average plasma level of MIP-1α” value [4, 5] was “reduced”, the “average plasma level of MIP-1β” value [4, 5] was “reduced” and the “plasma level of Eotaxin” value [4, 5] was “no or substantially no change”. The “plasma level of G-CSF” value [4, 5] was “no or substantially no change”, the “plasma level of GM-CSF” value [4, 5] was “no or substantially no change” and the “plasma level of IL-1α” value [4, 5] was “no or substantially no change”. The “plasma level of IP-10” value [4, 5] was “no or substantially no change”, the “plasma level of LIX” value [4, 5] was “no or substantially no change” and the “plasma level of M-CSF” value [4, 5] was “no or substantially no change”. The “plasma level of MCP-1” value [4, 5] was “no or substantially no change”, the “plasma level of MIP-2” value [4, 5] was “no or substantially no change” and the “plasma level of IL-4” value [4, 6] was “statistically significant reduction”. The “plasma level of IL-10” value [4, 6] was “statistically significant reduction”, the “plasma level of IL-12 (IL-12(p70))” value [4, 6] was “statistically significant reduction” and the “plasma level of IL-12(p40) (p40 subunit alone)” value [4, 6] was “does not reflect a change”. The “plasma level of IL-10” value [4, 7] was “statistically significant reduction”, the “plasma level of IL-12 (IL-12(p70))” value [4, 7] was “statistically significant reduction” and the “plasma level of IL-13” value [4, 7] was “statistically significant reduction”. For the same compound, the “plasma level of IL-17” value [4, 7] was “statistically significant reduction”, the “plasma level of MIP-1a” value [4, 7] was “statistically significant reduction” and the “plasma level of MIP-1b” value [4, 7] was “statistically significant reduction”. The “plasma level of TNFα” value [4, 7] was “statistically significant reduction”, the “plasma level of IL-2” value [4, 8] was “statistically significant reduction” and the “plasma level of IL-4” value [4, 8] was “statistically significant reduction”. The “plasma level of IL-10” value [4, 8] was “statistically significant reduction”, the “plasma level of IL-12 (IL-12(p70))” value [4, 8] was “statistically significant reduction” and the “plasma level of IL-13” value [4, 8] was “statistically significant reduction”. For the same compound, the “plasma level of IL-17” value [4, 8] was “statistically significant reduction”, the “plasma level of MIP-1a” value [4, 8] was “statistically significant reduction” and the “plasma level of MIP-1b” value [4, 8] was “statistically significant reduction”.
